Tests used:
[1] = Stability in phosphate-buffered saline; format: physicochemical; details: 25 MBq/nmol, 24 h; for intact complex in PBS: no radioprotectant, ambient temperature
Method: The stability of the preformed [^64Cu]Cu^2+ complexes in phosphate-buffered saline (PBS) was explored by diluting the labelling solution 1:1 v/v in PBS (pH 7.4). Both low and high molar activities (0.1 MBq/nmol and 25 MBq/nmol, respectively) were employed to evaluate the effect of radiolysis. Radioprotectants (ethanol 10% v/v or ascorbic acid 10% v/v) were added to PBS to quench the radiolysis phenomena. The [^64Cu]Cu^2+ complex stabilities were investigated at different time points after preparation using the TLC or UHPLC protocols reported previously.

[2] = Stability assay with DOTA (1000:1 DOTA-to-ligand); format: physicochemical; details: RT
Method: (§1) The stability of the preformed [^64Cu]Cu^2+ complexes was assessed by adding a 1000:1 DOTA/cysteine-to-ligand molar ratio excess. The incubation temperature was set at 37 °C when cysteine was used to simulate the biological environment, whilst it was kept at RT when DOTA was employed as a challenging agent.
(§2) The complex stability was evaluated over time by withdrawing an aliquot from the reaction mixtures. The latter was analyzed by UHPLC using the method described above.

[3] = Stability assay with cysteine (1000:1 Cys-to-ligand); format: physicochemical; details: 37 °C
Method: as §1, §2

Human serum stability = format: in vitro ADME; details: prepared at 25 MBq/nmol, 37 °C, over 24 h
Method: Human serum stability assays were performed as follow: the preformed [^64Cu]Cu^2+ complexes (prepared at 25 MBq/nmol) were diluted 1:5 v/v in human serum. The samples were incubated at 37 °C to simulate the biological environment. At the defined time point, 50 μL of the plasma-containing mixture were added to 200 μL of ice-cold methanol (0.16 MBq/μL final concentration) and centrifuged for 3 min at 8000 rpm. Afterwards, 2 μL of supernatant were spotted on TLC plates developed using the previous protocols. Dissociation of [^64Cu]Cu^2+ from the complexes was also monitored at varying time points using the same procedure with the exception that no proteins were precipitated. In this case, 2 μL of human plasma containing the labelled complex was directly spotted on the TLC plate. […] Both procedures were validated by incubating free [^64Cu]Cu^2+ with human plasma.

[4] = Biodistribution in BALB/c nude mice; format: in vivo
Method: (§3) All procedures involving animals were performed in accordance with ethical protocols approved by the Italian Ministry of Health (n. 44/2021-PR). Six-week-old female BALB/c nude mice (n = 9) were purchased from Charles River/Envigo and divided into three groups. Mice (n = 3/group) were administered with 7–14 MBq (depending on acquisition time after injection) of [^64Cu][Cu(DO2A2S)] solution by caudal intravenous injection. The exact amount of injected radioactivity was determined using a Capintec CRC-15PET dose calibrator. Micro PET/CT data were collected at 1, 4, and 24 h post injection using a Bruker Albira Si. Mice were anaesthetized with 1–2% isoflurane in a flow of oxygen (2 L/min 100% O2) and images were acquired over 20 min (10 min for PET and CT images acquisition, respectively). PET data were reconstructed using MLEM GPU (Graphics Processing Unit), while Filter Back Projection Algorithm was used for reconstructing CT images. Mice were euthanized by cervical dislocation immediately following the PET/CT scan and organs and tissues of interest were collected and weighed. Radioactivity associated with organs was measured using a γ-spectrometer based on a 1″×1″ inch cylindrical LBC (Lanthanum BromoChloride), LaBr2.85Cl0.15:Ce, inorganic scintillator manufactured by SCIONIX coupled to a HAMAMATSU R11102 Photomultiplier tube (PMT) which was previously characterized and validated against a Capintec CRC-15PET dose calibrator [48]. The results were corrected for decay to the time of injection. Radioactivity values were expressed as percentage of injected dose (mean ± SEM) per gram of tissue or organ (% ID/g). Concurrently, blood and urine aliquots (1 μL) were sampled for stability tests, which were carried out by radio-TLC scans (Cyclone, Perkin Elmer) by using silica gel 60 RP-18 F254S plates and 0.1 M sodium citrate as eluent.

[5] = In vivo stability in blood and urine samples (radio-TLC); set-up: species or system BALB/c nude mice
Method: as §3, with “PET data were reconstructed using MLEM GPU (Graphics Processing Unit), while Filter Back Projection Algorithm was used for reconstructing CT images. Mice were euthanized by cervical dislocation immediately following the PET/CT scan and organs and tissues of interest were collected and weighed.” left out, “The results were corrected for decay to the time of injection.” left out, “Concurrently, blood and urine aliquots (1 μL) were sampled for stability tests, which were carried out by radio-TLC scans (Cyclone, Perkin Elmer) by using silica gel 60 RP-18 F254S plates and 0.1 M sodium citrate as eluent.” left out

[6] = maximum reached over 1-24 h post-injection

| SMILES | % of intact complex, DOTA, 0 h [2] | % of intact complex, DOTA, 7 h [2] | % of intact complex, DOTA, 24 h [2] | % of intact complex, Cysteine, 0 h [3] | % of intact complex, Cysteine, 3 h [3] | % of intact complex, Cysteine, 24 h [3] | other results |
| --- | --- | --- | --- | --- | --- | --- | --- |
| CSCCN1CCN(CCSC)CCN(CCSC)CCN(CCSC)CC1 [DO4S, 1,4,7,10-Tetrakis[2-(methylsulfanyl)ethyl]-1,4,7,10-tetraazacyclododecane] |  |  |  |  |  |  | intact complex in PBS [1]: ~ 70% |
| CSCCN1CCN(CCSC)CCN(CCSC)CCN(CCSC)CC1.[64Cu+2] [[^64Cu][Cu(DO4S)]^2+] | 100% | 92% | 88% | 100% | 100% | 83% | complex stability in PBS with radioprotectants ([1]; ethanol 10% v/v or ascorbic acid 10% v/v): preserve the complex over 24 h |
| CSCCN1CCN(CC(=O)[O-])CCN(CCSC)CCN(CC(=O)[O-])CC1.[64Cu+2] [[^64Cu][Cu(DO2A2S)]] | 91% | 90% | 87% | 100% | 85% | 74% | intact complex in human serum (Human serum stability): > 99%; blood levels ([4]; 1 h post-injection, tail vein): < 2 % ID/g; kidneys uptake ([4]; 1 h post-injection, tail vein): 14.1 % ID/g; liver uptake ([4]; 1 h post-injection, tail vein): 14.0 % ID/g; lungs uptake ([4]; 1 h post-injection, tail vein): 8 % ID/g; pancreas uptake ([4]; 1 h post-injection, tail vein): 3 % ID/g; retention in bone ([4]; 1 h post-injection, tail vein): < 2 % ID/g; retention in muscle ([4]; 1 h post-injection, tail vein): < 1 % ID/g; spleen uptake ([4]; 1 h post-injection, tail vein): 4 % ID/g; dose found at 1 h remaining in kidneys at 24 h ([4]; 24 h versus 1 h post-injection): 73%; dose found at 1 h remaining in liver at 24 h ([4]; 24 h versus 1 h post-injection): 82%; dose found at 1 h remaining in lungs at 24 h ([4]; 24 h versus 1 h post-injection): 75%; pancreas uptake, progressive accumulation over time [4, 6]: ≤ 5.5 % ID/g; spleen uptake, progressive accumulation over time [4, 6]: up to 5.3 % ID/g; free-[^64Cu]Cu^2+/+ in urine samples ([5]; 4 h post-injection): ~50%; free copper-64 in blood samples ([5]; within 24 h from the injection): less than 5% |
| CSCCN1CCNCCN(CCSC)CCN(CCSC)CC1.[64Cu+2] [[^64Cu][Cu(DO3S)]^2+] | 100% | 100% | 100% | 100% | 100% | 100% |  |
| O=C([O-])CN1CCN(CC(=O)[O-])CCN(CC(=O)[O-])CCN(CC(=O)[O-])CC1.[64Cu+2] [[^64Cu][Cu(DOTA)]^2−, reference compound] |  |  |  |  |  |  | intact complex in human serum (Human serum stability): around 80% |
| CNC(=O)CN1CCN(CCSC)CCN(CCSC)CCN(CCSC)CC1.[64Cu+2] [[^64Cu][Cu(DO3SAm)]^2+] | 100% | 80% | 38% | 100% | 83% | 72% |  |
| CSCCN1CCN(CC(=O)O)CCN(CCSC)CCN(CC(=O)O)CC1 [DO2A2S, 1,7-bis[2-(methylsulfanyl)ethyl]-4,10,diacetic acid-1,4,7,10-tetraazacyclododecane] |  |  |  |  |  |  | intact complex in PBS with ascorbic acid ([1]; ascorbic acid 10% v/v): ~ 90%; intact complex in PBS [1]: ~ 25% |

Source: publication PMC9268100, “Chelation of Theranostic Copper Radioisotopes with S-Rich Macrocycles: From Radiolabelling of Copper-64 to In Vivo Investigation” (Molecules, 2022)
